Measurements from patent US8158621B2, “Methods of treating or preventing autoimmune diseases with 2,4-pyrimidinediamine compounds” (Rigel Pharmaceuticals, Inc., priority 2002, dated 2012).
pIC50: −log10 of the molar value.

Test system: Human Jurkat T-cells (clone N)
Assay: Jurkat T-cell activation (anti-TCR, CD69 upregulation)
Type: cell-based
Conditions: not given
Outline: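 Readout is CD69 upregulation by flow cytometry (anti-CD69-APC, 20 min at 4 °C) after 20 h anti-TCR (C305, 500 ng/ml) stimulation at 37 °C.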

Structure (SMILES) | pIC50
CN1C=COc2ccc(Nc3nc(Nc4cccc(O)c4)ncc3F)cc21 [Compound R908710] | 5.37

Same assay, conditions: Homo sapiens, Jurkat

Structure (SMILES) | pIC50
Fc1cnc(Cl)nc1Nc1ccc(Cl)c(Cl)c1 [Compound R926884] | < 5.00
CCOC(=O)C=C1NN=C(c2cccc(Nc3nc(Cl)ncc3F)c2)O1 [Compound R926873] | < 5.00
Oc1cccc(Nc2ncc(F)c(Nc3ccc4c(c3)OCCO4)n2)c1 [Compound R925796] | 5.74
Fc1cnc(Cl)nc1Nc1ccc(Cl)c(C(F)(F)F)c1 [Compound R926877] | < 5.00
COc1ccc(Nc2nc(Cl)ncc2F)cn1 [Compound R926878] | < 5.00
Fc1ccc(Nc2nc(Cl)ncc2F)cc1F [Compound R926882] | 5.04
Cc1cccc(Nc2nc(Cl)ncc2F)n1 [Compound R926888] | 5.25
COC1=CC=C(Nc2nc(Cl)ncc2F)CC1=CN(C(=O)OC(C)(C)C)C(C)C [Compound R940320] | 5.11
Fc1cnc(Cl)nc1Nc1ccc(OC(F)(F)F)cc1 [Compound R926875] | < 5.00
Fc1cnc(Cl)nc1Nc1ccc(C(F)(F)F)cc1 [Compound R926876] | < 5.00
O=C1COc2ccc(Nc3ncc(F)c(Nc4cccc(O)c4)n3)cc2N1 [Compound R909238] | 5.30

Test system: cultured human mast cells (CHMC)
Assay: CHMC low cell density IgE activation: tryptase assay
Type: cell-based
Conditions: Homo sapiens, Mast cell, Low Density CHMC, anti-IgE activation, tryptase release; read-out: CHMC anti-IgE Tryptase IC50
Description: Pellet CHMC cells (980 rpm, 10 min) and resuspend in pre-warmed MT. Add 65 ul of cells to each 96-well plate. Depending on the degranulation activity for each particular CHMC donor, load 1000-1500 cells/well. Mix four times followed by a 1 hr incubation at 37° C. […] Stimulate cells by adding 25 ul of 6× anti-IgE solution to the appropriate plates. Add 25 ul MT to un-stimulated control wells. Mix twice following addition of the anti-IgE. Incubate at 37° C. for 30 minutes. […] Spin plates at 1000 rpm for 10 min to pellet cells. Transfer 25 ul of supernatant to a 96-well black bottom plate and add 100 ul of freshly diluted tryptase substrate solution to each well. Incubate plates at room temperature for 30 min.

Structure (SMILES) | pIC50
Oc1cccc(Nc2ncc(F)c(Nc3ccc4c(c3)OCCO4)n2)c1 [Compound R925796] | 5.70
O=C1COc2ccc(Nc3ncc(F)c(Nc4cccc(O)c4)n3)cc2N1 [Compound R909238] | 6.76

Same assay, conditions: Homo sapiens, Mast cell, Low Density; read-out: CHMC anti-IgE Tryptase

Structure (SMILES) | pIC50
Fc1cnc(Cl)nc1Nc1ccc(Cl)c(Cl)c1 [Compound R926884] | < 5.00
CCOC(=O)C=C1NN=C(c2cccc(Nc3nc(Cl)ncc3F)c2)O1 [Compound R926873] | < 5.00
Fc1cnc(Cl)nc1Nc1ccc(Cl)c(C(F)(F)F)c1 [Compound R926877] | < 5.00
COc1ccc(Nc2nc(Cl)ncc2F)cn1 [Compound R926878] | < 5.00
Fc1ccc(Nc2nc(Cl)ncc2F)cc1F [Compound R926882] | < 5.00
Cc1cccc(Nc2nc(Cl)ncc2F)n1 [Compound R926888] | < 5.00
COC1=CC=C(Nc2nc(Cl)ncc2F)CC1=CN(C(=O)OC(C)(C)C)C(C)C [Compound R940320] | < 5.00
Fc1cnc(Cl)nc1Nc1ccc(OC(F)(F)F)cc1 [Compound R926875] | < 5.00
Fc1cnc(Cl)nc1Nc1ccc(C(F)(F)F)cc1 [Compound R926876] | < 5.00
Cc1ccnc(Nc2nc(Cl)ncc2F)c1 [Compound R920401] | < 5.00

Same assay, conditions: Low Density; read-out: CHMC anti-IgE Tryptase

Structure (SMILES) | pIC50
CN1C=COc2ccc(Nc3nc(Nc4cccc(O)c4)ncc3F)cc21 [Compound R908710] | 5.74

Same assay, conditions: low cell density; read-out: CHMC anti-IgE Tryptase

Structure (SMILES) | pIC50
Fc1cc(Nc2nc(Nc3ccc4[nH]ncc4c3)ncc2F)ccc1Cl [Compound R935415] | 6.63
CNC(=O)CCn1ncc2ccc(Nc3ncc(F)c(Nc4ccc(Cl)c(Cl)c4)n3)cc21 [Compound R935404] | 6.24
NC1CCOc2ccc(Nc3ncc(F)c(Nc4ccc(Cl)c(Cl)c4)n3)cc21 (racemic) [Compound R950437] | 6.09
COc1c(C)cc(Nc2ncc(F)c(Nc3ccc4c(c3)OCCO4)n2)cc1Cl [Compound R940397] | 5.43
COc1cc(Nc2ncc(F)c(Nc3ccc4c(c3)NC(=O)C(C)(C)O4)n2)cc(OC)c1 [Compound R927073] | 7.18
CNC(=O)COc1cccc(Nc2ncc(F)c(Nc3ccc(N(C)C(C)=O)cc3)n2)c1 [Compound R945377] | 5.95
CC(C)(C)OC(=O)NC1CCOc2ccc(Nc3nc(Nc4ccc(Cl)c(Cl)c4)ncc3F)cc21 (racemic) [Compound R950429] | 5.40
CC(C)(C)OC(=O)NC1CCOc2ccc(Nc3ncc(F)c(Nc4ccc(Cl)c(Cl)c4)n3)cc21 (racemic) [Compound R950433] | < 5.00
COc1c(C)cc(Nc2ncc(F)c(Nc3ccc4c(c3)OCCO4)n2)cc1C [Compound R940396] | 4.64
CNC(=O)COc1cccc(Nc2ncc(F)c(Nc3ccc(OC(C)C)c(Cl)c3)n2)c1 [Compound R926973] | 6.55
COc1ccc(Nc2nc(Nc3ccc4cnn(C)c4c3)ncc2F)cc1Cl [Compound R935402] | 6.67
CCOC(=O)CCn1ncc2ccc(Nc3ncc(F)c(Nc4ccc(OC)c(Cl)c4)n3)cc21 [Compound R935406] | 5.93
CN(C)C(=O)C1Cc2cc(Nc3ncc(F)c(Nc4ccc(OC(F)(F)F)c(Cl)c4)n3)ccc2O1 (centres unmarked) [Compound R927053] | 6.17
COc1cc(Nc2ncc(F)c(Nc3ccc4cn[nH]c4c3)n2)cc(OC)c1 [Compound R935423] | 6.78
C[C@@H]1Oc2ccc(Nc3nc(Nc4ccc(C(N)=O)cc4)ncc3F)cc2NC1=O [Compound R950452] | 7.00
COC(=O)c1ccc(Cn2cc3ccc(Nc4ncc(F)c(Nc5ccc(Cl)c(Cl)c5)n4)cc3n2)c(OC)c1 [Compound R935396] | 5.59
COC(=O)COc1cccc(Nc2ncc(F)c(Nc3ccc4c(n3)NC(=O)C(C)(C)O4)n2)c1 [Compound R940392] | 6.84
COC(=O)c1ccc(Cn2ncc3ccc(Nc4ncc(F)c(Nc5ccc6c(c5)NC(=O)C(C)(C)O6)n4)cc32)c(OC)c1 [Compound R935442] | 6.15
COc1cc(Nc2nc(Nc3ccc(C(N)=O)cc3)ncc2F)cc(OC)c1 [Compound R950450] | 5.96
COc1cc(Nc2ncc(F)c(Nc3ccc(N4CCOCC4)c(Cl)c3)n2)cc(OC)c1 [Compound R926986] | 6.46
COc1c(Cl)cc(Nc2ncc(F)c(Nc3ccc(Cl)c(Cl)c3)n2)cc1Cl [Compound R927058] | 4.91
CNC(=O)COc1cccc(Nc2ncc(F)c(Nc3ccc(OC4CCC(N)CC4)c(Cl)c3)n2)c1 (mixture of isomers) [Compound R945403] | 5.77
CC(=O)N(C)c1ccc(Nc2nc(NC3CCC3)ncc2F)cc1 [Compound R945379] | < 5.00
CNC(=O)COc1cccc(Nc2ncc(F)c(Nc3ccc4c(c3)C(NC)CCO4)n2)c1 (racemic) [Compound R950412] | 6.52

Structure (SMILES) | pIC50
OCCCn1ncc2ccc(Nc3ncc(F)c(Nc4ccc(Cl)c(Cl)c4)n3)cc21 [Compound R935405] | 6.41
CC(=O)N(C)c1ccc(Nc2nc(NC3CC3)ncc2F)cc1 [Compound R945375] | < 5.00
COc1cc(Nc2ncc(F)c(Nc3ccc4c(c3)NC(=O)C(C)(C)O4)n2)cc(OC)c1 [Compound R927071] | 7.17
Cn1ncc2cc(Nc3ncc(F)c(Nc4ccc(Cl)c(F)c4)n3)ccc21 [Compound R935411] | < 5.00
CC1(C)Oc2ccc(Nc3ncc(F)c(Nc4ccc(Cl)c(Cl)c4)n3)cc2NC1=O [Compound R927059] | 6.54
CNC(=O)COc1cccc(Nc2ncc(F)c(Nc3cccc(OCC(=O)NC)c3)n2)c1 [Compound R945378] | 6.12
COc1cc(Nc2ncc(F)c(Nc3ccc4cnn(C)c4c3)n2)c(OC)cc1Cl [Compound R935421] | 5.54
C[C@@H]1Oc2ccc(Nc3nc(N[C@@H]4CCCC[C@H]4N)ncc3F)cc2NC1=O [Compound R950441] | < 5.00
COc1c(C)cc(Nc2ncc(F)c(Nc3ccc4c(n3)NC(=O)C(C)(C)O4)n2)cc1Cl [Compound R940391] | 6.58
CNC(=O)CCn1ncc2ccc(Nc3ncc(F)c(Nc4ccc5c(c4)NC(=O)C(C)(C)O5)n3)cc21 [Compound R935435] | 6.47
COC(=O)N1CCN(c2ccc(Nc3nc(NC4CCC4)ncc3F)cc2)CC1 [Compound R945374] | < 5.00
COc1ccc(Nc2nc(Nc3ccc4c(c3)CC(C(=O)N(C)C)O4)ncc2F)cc1Cl (centres unmarked) [Compound R927052] | 6.17
C[C@@H]1Oc2ccc(Nc3nc(Nc4ccc(CN)cc4)ncc3F)cc2NC1=O [Compound R950461] | 6.85
CNC(=O)COc1cccc(Nc2ncc(F)c(NC3CCC3)n2)c1 [Compound R945387] | 5.95
CCOC(=O)CCn1ncc2ccc(Nc3ncc(F)c(Nc4ccc(Cl)c(Cl)c4)n3)cc21 [Compound R935403] | 6.09
COc1cc(Nc2nc(Nc3ccc4[nH]ncc4c3)ncc2F)ccc1F [Compound R935417] | 6.38
CCN(CC)CCNC(=O)c1ccc(Nc2ncc(F)c(Nc3ccc4c(c3)NC(=O)[C@H](C)O4)n2)cc1 [Compound R950446] | 6.83
CCNC1CCC(Oc2ccc(Nc3nc(Nc4cccc(OCC(=O)NC)c4)ncc3F)cc2Cl)CC1 (mixture of isomers) [Compound R945411] | 5.54
Cc1cc(Nc2ncc(F)c(Nc3ccc4c(c3)NC(=O)C(C)(C)O4)n2)cc(C)c1C [Compound R926994] | 7.21
OCCCn1ncc2cc(Nc3ncc(F)c(Nc4ccc(F)c(F)c4)n3)ccc21 [Compound R935386] | 6.54
Fc1ccc(Nc2nc(Nc3ccc4[nH]ncc4c3)ncc2F)cc1Cl [Compound R935428] | 5.90
CCN(CC)CCNC(=O)c1ccc(Nc2ncc(F)c(Nc3ccc4c(c3)NC(=O)C(F)(F)O4)n2)cc1 [Compound R950449] | 6.18
Cn1ncc2ccc(Nc3nc(Cl)ncc3F)cc21 [Compound R935394] | < 5.00

Test system: cultured human mast cells (CHMC)
Assay: CHMC low cell density ionomycin activation: tryptase assay
Type: cell-based
Conditions: low cell density; read-out: CHMC Ionomycin Tryptase

Structure (SMILES) | pIC50
Cc1cc(C)cc(Nc2ncc(F)c(Nc3ccc4c(c3)NC(=O)C(C)(C)O4)n2)c1 [Compound R927075] | 4.82
COc1ccc(Nc2nc(Nc3ccc4c(cnn4C)c3)ncc2F)cc1Cl [Compound R935458] | < 5.00
CNC(=O)COc1cccc(Nc2ncc(F)c(Nc3ccc4c(c3)[C@H](N)CCO4)n2)c1 [Compound R950421] | < 5.00
O=C1COc2ccc(Nc3nc(Nc4cccc(Br)c4)ncc3F)nc2N1 [Compound R945455] | < 5.00
Cc1cc(C)cc(Nc2ncc(F)c(Nc3ccc4c(c3)NC(C)(C)CO4)n2)c1 [Compound R908586] | < 5.00
COc1ccc(Nc2ncc(F)c(Nc3ccc4c(c3)NC(C)(C)CO4)n2)cc1Cl [Compound R908587] | < 5.00
CC1(C)C(=O)NC(=O)c2cc(Nc3nc(Nc4ccc(C(N)=O)cc4)ncc3F)ccc21 [Compound R950453] | < 5.00
CNC(=O)COc1cccc(Nc2ncc(F)c(Nc3ccc4c(c3)NC(=O)C(C)(C(=O)NC)O4)n2)c1 (racemic) [Compound R940365] | < 5.00
